The text below walks through data of ChEMBL document CHEMBL1138613, “1,5-Benzodiazepine inhibitors of HCV NS5B polymerase” (Bioorg Med Chem Lett, 2009).

The subject of data set [1] is Hepatitis C virus. As to the kind of experiment: Antiviral activity against HCV 1b in human HuH7cells by luciferase reporter replicon assay. It is filed as functional, organism-based, Hepacivirus hominis. The conditions noted are these: genotype 1b, Huh-7. In general terms: In a reporter assay the amount or activity of a reporter protein is the signal.
The nature of data set [2]: Cytotoxicity against human HuH7 cells after 5 days by ATPlite luminescence assay. It is filed as cell-based, Huh-7. For orientation: ATP-based viability assays read luminescence as a measure of living cells.
Data set [3] concerns Hepatitis C virus. As to the kind of experiment: Inhibition of HCV 1b J4 recombinant NS5B Cdelta 21 polymerase overexpressed in Escherichia coli BL21 (DE3) assessed as [alpha33P]UTP incorporation by scintillation proximity analysis. More on the design: species or system Hepatitis C virus subtype 1b.
The nature of data set [4]: Selectivity index, ratio of CC50 for human HuH7 cells to EC50 for HCV 1b in human HuH7cells. In kind it is functional, Huh-7.
The nature of data set [5]: Apparent permeability from apical to basolateral side of human Caco-2 cells. In kind it is ADME, cell-based. On the technique in general: Caco-2 monolayers are a common model of the intestinal barrier.
Data set [6] can be described thus: Inhibition of HCV NS5B polymerase. More on the design: species or system Hepacivirus hominis.

A value given as a limit tells only on which side of the number the result lay.

One may read the EC50 as the concentration at which the effect is half-maximal. A higher EC50 goes with a need for much substance. For orientation: CC50 means the concentration at which the toxic effect on the cells reaches its halfway point. By IC50 is commonly meant the midpoint of a concentration-inhibition curve. Compound `Cc1cccc(C(=O)N2c3cccc(O)c3NC3=C(C(=O)CC(C)(C)C3)C2c2ccc(OCc3ccccc3)cc2F)n1` (stereo not drawn) registered a half-maximal effective concentration (EC50) with Hepatitis C virus [1] of 0.5 µM. The compound further came in with a CC50 at 120 h in data set [2] of 18 µM. In addition, the concentration for half-maximal inhibition (IC50) with Hepatitis C virus [3] was found to be 0.07 µM.

For the compound `Cc1cccc(C(=O)N2c3cccc(O)c3NC3=C(C(=O)CC(C)(C)C3)[C@H]2c2ccc(OCc3ccccc3)cc2F)n1`, the EC50 with Hepatitis C virus [1] stood at 5.7 µM. In addition, the CC50 at 120 h in data set [2] came to 18 µM. Further, the IC50 with Hepatitis C virus [3] is above 11 µM.

In the case of `CC(=O)N1c2ccccc2NC2=C(C(=O)CC(C)(C)C2)C1c1ccc(OCc2ccccc2)cc1Cl` (stereo not drawn), in the data set on Hepatitis C virus [1], it took 2.3 µM to reach a half-maximal effect (EC50). Also, the IC50 in the data set with Hepatitis C virus [3] was 0.9 µM.

In the data set with Hepatitis C virus [1], `CC(C)C(=O)N1c2cccc(O)c2NC2=C(C(=O)CC(C)(C)C2)C1c1ccc(OCc2ccccc2)cc1Cl` (stereo not drawn) came in with a 50% effective concentration (EC50) of 1.5 µM. The compound further returned a CC50 at 120 h in data set [2] of 17 µM. Also, in the data set on Hepatitis C virus [3], the IC50 is 0.154 µM.

In the case of `CC1(C)CC(=O)C2=C(C1)Nc1c(O)cccc1N(C(=O)c1nccs1)C2c1ccc(OCc2ccccc2)cc1F` (stereo not drawn), the EC50 in the data set on Hepatitis C virus [1] came to 1.7 µM. Also, in data set [2], the midpoint of cytotoxicity, the CC50 at 120 h, lay at 19 µM. For the same compound, the IC50 in the data set with Hepatitis C virus [3] was 0.111 µM.

Consider `CC1(C)CC(=O)C2=C(C1)Nc1c(O)cccc1N(C(=O)c1ccco1)C2c1ccc(OCc2ccccc2)cc1F` (stereo not drawn), for which the EC50 in the data set with Hepatitis C virus [1] is 2.2 µM. In addition, in data set [2], it took 16 µM to reach half-maximal cytotoxicity (CC50 at 120 h). Further, the IC50 in the data set on Hepatitis C virus [3] worked out at 0.075 µM.

`CC(=O)N1c2cccc(O)c2NC2=C(C(=O)CC(C)(C)C2)C1c1cn(C)c2ccccc12` (stereo not drawn) showed an EC50 in the data set on Hepatitis C virus [1] above 32 µM. The IC50 in the data set with Hepatitis C virus [3] was 13 µM.

Turning to `Cc1nc(C(=O)N2c3cccc(O)c3NC3=C(C(=O)CC(C)(C)C3)C2c2ccc(OCc3ccccc3)cc2F)cs1` (stereo not drawn), a half-maximal effect in the data set on Hepatitis C virus [1] (EC50) was put at 0.97 µM. The same compound gave a CC50 at 120 h in data set [2] above 32 µM. Besides, the IC50 in the data set on Hepatitis C virus [3] worked out at 0.143 µM.

Take `CC(=O)N1c2cccc(O)c2NC2=C(C(=O)CC(C)(C)C2)C1c1ccco1` (stereo not drawn): a half-maximal response in the data set with Hepatitis C virus [1] (EC50) required 43 µM. Besides, the IC50 with Hepatitis C virus [3] amounted to 21 µM.

`CC1(C)CC(=O)C2=C(C1)Nc1c(O)cccc1N(C(=O)c1ccncc1)C2c1ccc(OCc2ccccc2)cc1F` (stereo not drawn) gave a half-maximal effective concentration (EC50) in the data set with Hepatitis C virus [1] of 3.3 µM. The midpoint of cytotoxicity in data set [2], the CC50 at 120 h, lay at 76 µM. For the same compound, the IC50 in the data set on Hepatitis C virus [3] was 0.086 µM.

In the data set with Hepatitis C virus [1], `CC(=O)N1c2cccc(O)c2NC2=C(C(=O)CC(C)(C)C2)C1c1sccc1OCc1ccccc1` (stereo not drawn) yielded an EC50 of 11 µM. The IC50 in the data set on Hepatitis C virus [3] was 0.18 µM.

The compound `CC(=O)N1c2cccc(O)c2NC2=C(C(=O)CC(C)(C)C2)C1C1CCCCC1` (stereo not drawn) gave an EC50 with Hepatitis C virus [1] of 0.74 µM. Besides, the IC50 with Hepatitis C virus [3] worked out at 22 µM.

For `CC(=O)N1c2cccc(O)c2NC2=C(C(=O)CC(C)(C)C2)C1c1nccn1C` (stereo not drawn), in the data set on Hepatitis C virus [1], the EC50 was above 32 µM. Further, in the data set with Hepatitis C virus [3], the IC50 is above 32 µM.

As for `CC(=O)N1c2ccncc2NC2=C(C(=O)CC(C)(C)C2)C1c1ccc(Cl)cc1Cl` (stereo not drawn), the EC50 in the data set with Hepatitis C virus [1] was above 32 µM. Moreover, the IC50 with Hepatitis C virus [3] stood at 0.51 µM.

In turn, `CC(C)C(=O)N1c2cccc(O)c2NC2=C(C(=O)CC(C)(C)C2)C1c1ccc(OCc2ccccc2)cc1Br` (stereo not drawn) registered an EC50 with Hepatitis C virus [1] of 2.4 µM. For the same compound, the CC50 at 120 h in data set [2] is 12 µM. Further, the IC50 in the data set with Hepatitis C virus [3] is 0.087 µM.

`CC1(C)CC(=O)C2=C(C1)Nc1c(O)cccc1N(C(=O)c1ncn[nH]1)C2c1ccc(OCc2ccccc2)cc1F` (stereo not drawn) registered an EC50 in the data set on Hepatitis C virus [1] of 2.4 µM. This compound showed a CC50 at 120 h in data set [2] above 32 µM. For the same compound, in the data set on Hepatitis C virus [3], the 50% inhibitory concentration (IC50) came to 0.021 µM.

One may read the Papp A→B as the apparent permeability from the apical to the basolateral side of a cell layer. Compound `Cc1cccc(C(=O)N2c3cccc(O)c3NC3=C(C(=O)CC(C)(C)C3)[C@@H]2c2ccc(OCc3ccccc3)cc2F)n1` gave a concentration for a half-maximal effect (EC50) in the data set on Hepatitis C virus [1] of 0.4 µM. Also, the “Selectivity Index” value in data set [4] is 50. This compound also showed a CC50 at 120 h in data set [2] of 21 µM. Besides, in the data set with Hepatitis C virus [3], the IC50 was 0.089 µM. The Papp A→B in data set [5] is 11.6 ×10⁻⁶ cm/s.

In data set [6], `O=C(O)/C(=C/c1ccc(Oc2c(F)cccc2Br)cc1)NC(=O)c1ccccc1` displayed an IC50 of 0.03 µM.

In turn, `CC(=O)N1c2cccc(O)c2NC2=C(C(=O)CC(C)(C)C2)[C@@H]1c1ccc(Cl)cc1Cl` gave an EC50 in the data set with Hepatitis C virus [1] of 2.42 µM.

In the data set on Hepatitis C virus [1], `CC(=O)N1c2cccc(C#N)c2NC2=C(C(=O)CC(C)(C)C2)C1c1ccc(Cl)cc1Cl` (stereo not drawn) showed a 50% effective concentration (EC50) of 15.4 µM. Besides, in the data set with Hepatitis C virus [3], the IC50 is 6.97 µM.

Compound `CC(=O)N1CC2=C(CC(C)(C)CC2=O)Nc2c(O)cccc21` registered an EC50 in the data set on Hepatitis C virus [1] above 32 µM. Further, the IC50 in the data set with Hepatitis C virus [3] was above 32 µM.

For `Cc1nc(C(=O)N2c3cccc(O)c3NC3=C(C(=O)CC(C)(C)C3)C2c2ccc(OCc3ccccc3)cc2F)c(C)o1` (stereo not drawn), a half-maximal response in the data set with Hepatitis C virus [1] (EC50) required 0.57 µM. It took 28 µM to reach half-maximal cytotoxicity in data set [2] (CC50 at 120 h). In addition, in the data set with Hepatitis C virus [3], the IC50 stood at 0.079 µM.

On to `Cc1nc(C(=O)N2c3cccc(O)c3NC3=C(C(=O)CC(C)(C)C3)[C@H]2c2ccc(OCc3ccccc3)cc2F)c(C)o1`, for which the 50% effective concentration (EC50) with Hepatitis C virus [1] stood at 3.6 µM. This compound registered a CC50 at 120 h in data set [2] of 13 µM. For the same compound, in the data set with Hepatitis C virus [3], the IC50 is 27 µM.

Consider `CC1(C)CC(=O)C2=C(C1)Nc1c(O)cccc1N(C(=O)c1cccnc1)C2c1ccc(OCc2ccccc2)cc1F` (stereo not drawn), for which the midpoint of the response with Hepatitis C virus [1], the EC50, lay at 2.3 µM. In data set [2], this compound returned a CC50 at 120 h of 20 µM. For the same compound, in the data set on Hepatitis C virus [3], the IC50 was found to be 0.109 µM.

With `CC(=O)N1c2cccc(Br)c2NC2=C(C(=O)CC(C)(C)C2)C1c1ccc(Cl)cc1Cl` (stereo not drawn), the EC50 in the data set with Hepatitis C virus [1] turned out to be 7.8 µM. The IC50 in the data set with Hepatitis C virus [3] came to 6.12 µM.
